This note sets out measurements from patent US10542989B2, “Synergistic dietary supplement compositions for enhancing physical performance and energy levels” (LAILA NUTRACEUTICALS, priority 2015, dated 2020).

The structures appear in SMILES notation.

Experiment [1] concerns Swiss albino mice. The experiment is described as follows: Energy and endurance forced swim test (FST) with constant load. Type of experiment: in vivo. Particulars: for Activity during forced swimming compared to control group (in words): 10 minutes of forced swimming, day 21; for Average Velocity / Distance Travelled (mm) / Fast Swimming Time / Resting Time / Slow Swimming: oral, 21 days, 150 mg/kg (Caffeine 10 mg/kg), 10 min swim on day 21, Mean ± SEM. The protocol: The efficacy of the compositions LI12522F2, LI89032F3 and LI80020F3 for enhancing energy and endurance was further evaluated in an animal study. […] On day 21, one hour after the treatment the mice were forced to swim with a constant load (10% of its body weight attached to its tail) in an acrylic cylinder filled with water. This test was monitored for 10 minutes using the SMART video tracking system ([…]). Various swimming parameters were recorded and analyzed by smart software. […] Swiss albino mice were acclimatized for 5 days before initiation of the study. Healthy Swiss albino mice were selected and randomly divided (n=6) into different treatment groups. […] On day 21, one hour after the treatment the mice were forced to swim with a constant load (10% of its body weight attached to its tail) in an acrylic cylinder filled with water. This test was monitored for 10 minutes using the SMART video tracking system ([…]). Various swimming parameters were recorded and analyzed by smart software. Measured Swimming parameters include, resting time, slow moving time, fast moving time, total moving time, path length of swimming and average velocity.

Experiment [2] deals with Swiss albino mice. The experiment is described as follows: Grip strength measurement (grip strength meter). Type of experiment: in vivo. As to conditions: oral, 150 mg/kg (Caffeine 10 mg/kg), Mean ± SEM.
Protocol: Similarly, after 21 days of treatment, the grip strength of mice was measured by using Grip strength meter (UgoBasile, Italy). Animals were trained and habituated to the experimental environment and conditions for 5 days. Each mice was allowed to grasp the grasping bar and it was pulled back gently in a horizontal plane by tail with gradually increasing force till the pulling force overcomes the grip strength of the animal. The force applied at the moment when the mice leaves its grasp on the grasping bar was recorded as grip strength in grams.
After 21 days of treatment Grip strength of mice was measured by using Grip strength meter (UgoBasile, Italy). Animals were trained and habituated to the experimental environment and conditions for 5 days. Each mice was allowed to grasp the grasping bar and it was pulled back gently in a horizontal plane by tail with gradually increasing force till the pulling force overcomes the grip strength of the animal. The force applied at the moment when the mice leaves its grasp on the grasping bar was recorded as grip strength in grams. Three trials were conducted on each animal and average grip strength was calculated.

Take `Cn1c(=O)c2c(ncn2C)n(C)c1=O` [Caffeine]: in experiment [1], the “Activity during forced swimming compared to control group (in words)” value is “more active and energetic”; the “Average Velocity” value came out at 49.80; the “Distance Travelled (mm)” value was found to be 28740.25 mm; the “Fast Swimming Time” value was found to be 82.16 s. In addition, in experiment [1], the “Resting Time” value came to 399.64 s and the “Slow Swimming” value was found to be 92.12 s. Besides, in experiment [2], the “Average Grip Strength measured after 21 Days” value amounted to 56.07 ± 10.37 grams.

Turning to `C[N+](C)(C)C[C@H](O)CC(=O)[O-]` [L-Carnitine], in experiment [1], the “Activity during forced swimming compared to control group (in words)” value was “more active and energetic”; the “Average Velocity” value amounted to 44.24; the “Distance Travelled (mm)” value was 26197.58 mm; the “Fast Swimming Time” value was 67.64 s. For the same compound, in experiment [1], the “Resting Time” value is 419.52 s and the “Slow Swimming” value amounted to 104.92 s. Further, the “Average Grip Strength measured after 21 Days” value in experiment [2] amounted to 39.20 ± 7.51 grams.
